In ChEMBL document CHEMBL1201861, “Genomics of Drug Sensitity in Cancer screening data, Wellcome Trust Sanger Institute”:

Legend:
DG-75 = assay: cells; type: functional, cell-based, Homo sapiens; conditions: Homo sapiens, DG-75;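 note: growth inhibition of DG-75 cells, read out with a cell viability assay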
Description: SANGER: Inhibition of human DG-75 cell growth in a cell viability assay.

ECC4 = assay: cells; type: functional, cell-based, Homo sapiens; conditions: Homo sapiens, ECC4;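 note: growth inhibition of ECC4 cells, read out with a cell viability assay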
Description: SANGER: Inhibition of human ECC4 cell growth in a cell viability assay.

GDM-1 = assay: cells; type: functional, cell-based, Homo sapiens; conditions: Homo sapiens, GDM-1;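 note: cell viability readout used to measure growth inhibition of human GDM-1 cells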
Description: SANGER: Inhibition of human GDM-1 cell growth in a cell viability assay.

IST-SL2 = assay: cells; type: functional, cell-based, Homo sapiens; conditions: Homo sapiens, IST-SL2;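 note: growth inhibition of human IST-SL2 cells, read out by a cell viability assay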
Description: SANGER: Inhibition of human IST-SL2 cell growth in a cell viability assay.

JIYOYE = assay: cells; type: functional, cell-based, Homo sapiens; conditions: Homo sapiens, JIYOYE
Description: SANGER: Inhibition of human JiyoyeP-2003 cell growth in a cell viability assay.

L-540 = assay: cells; type: functional, cell-based, Homo sapiens; conditions: Homo sapiens, L-540;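 note: growth inhibition of the human L-540 cell line, read out with a viability assay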
Description: SANGER: Inhibition of human L-540 cell growth in a cell viability assay.

NCI-H187 = assay: cells; type: functional, cell-based, Homo sapiens; conditions: Homo sapiens, NCI-H187;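 note: growth inhibition of NCI-H187 cells, read out as cell viability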
Description: SANGER: Inhibition of human NCI-H187 cell growth in a cell viability assay.

P31-FUJ = assay: cells; type: functional, cell-based, Homo sapiens; conditions: Homo sapiens, P31-FUJ;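 note: growth inhibition of P31-FUJ cells, read out with a viability assay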
Description: SANGER: Inhibition of human P31-FUJ cell growth in a cell viability assay.

RPMI 8402 = assay: SANGER: Inhibition of human RPMI-8402 cell growth in a cell viability assay.; type: functional, cell-based; conditions: Homo sapiens, RPMI 8402
BL-70 = assay: SANGER: Inhibition of human BL-70 cell growth in a cell viability assay.; type: functional, cell-based; conditions: Homo sapiens, BL-70
THP-1 = assay: cells; type: functional, cell-based, Homo sapiens; conditions: Homo sapiens, THP-1;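 note: growth inhibition of THP-1 cells, read out via a cell viability assay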
Description: SANGER: Inhibition of human THP-1 cell growth in a cell viability assay.

YT = assay: cells; type: functional, cell-based, Homo sapiens; conditions: Homo sapiens, YT
Description: SANGER: Inhibition of human YT cell growth in a cell viability assay.

BOKU = assay: cells; type: functional, cell-based, Homo sapiens; conditions: Homo sapiens, BOKU;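 note: growth inhibition of the human BOKU cell line, read out by a cell viability assay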
Description: SANGER: Inhibition of human BOKU cell growth in a cell viability assay.

Row | SMILES | IC50 (DG-75) [nM] | IC50 (ECC4) [nM] | IC50 (GDM-1) [nM] | IC50 (IST-SL2) [nM] | IC50 (JIYOYE) [nM] | IC50 (L-540) [nM] | IC50 (NCI-H187) [nM] | IC50 (P31-FUJ) [nM] | IC50 (RPMI 8402; read-out: IC50) [nM] | IC50 (BL-70) [nM] | IC50 (THP-1) [nM] | IC50 (YT) [nM] | IC50 (BOKU) [nM] | IC50 (RPMI 8402) [nM]
1 | COc1cc2ncn(-c3cc(OCc4ccccc4S(C)(=O)=O)c(C#N)s3)c2cc1OC [GSK-319347A] | > 5000 | > 5000 | > 5000 | > 5000 | > 5000 | > 5000 | > 5000 | > 5000 | > 5000 | > 5000 | > 5000 | > 5000 | – | –
2 | COc1cc2ncn(-c3cc(OCc4ccccc4C(F)(F)F)c(C(N)=O)s3)c2cc1OC [GW843682X] | 63.3 | > 256 | 50.8 | 112 | 148 | 121 | 23.3 | > 256 | 4.67 | 8.55 | > 256 | > 256 | 135 | –
3 | CC(=O)O[C@H]1C(=O)[C@@]2(C)[C@H]([C@H](OC(=O)c3ccccc3)[C@]3(O)C[C@H](OC(=O)[C@H](O)[C@@H](NC(=O)c4ccccc4)c4ccccc4)C(C)=C1C3(C)C)[C@]1(OC(C)=O)CO[C@@H]1C[C@@H]2O [PACLITAXEL] | 69 | > 102 | > 102 | 42.7 | 21.8 | 46.4 | > 102 | > 102 | 12.6 | 9.3 | > 102 | > 102 | > 102 | –
4 | N[C@@H](CSC(c1ccccc1)(c1ccccc1)c1ccccc1)C(=O)O [S-TRITYL-L-CYSTEINE] | > 5120 | > 5120 | 2490 | 2260 | 1700 | > 5120 | > 5120 | > 5120 | 1280 | 547 | > 5120 | > 5120 | > 5120 | –
5 | CC[C@H](CO)Nc1nc(NCc2ccccc2)c2ncn(C(C)C)c2n1 [SELICICLIB] | > 16000 | > 16000 | > 16000 | > 16000 | 8500 | > 16000 | > 16000 | > 16000 | – | > 16000 | > 16000 | > 16000 | – | 13600
6 | CCN(CC)CCNC(=O)c1c(C)[nH]c(/C=C2\C(=O)Nc3ccc(F)cc32)c1C [SUNITINIB] | 6430 | > 8000 | > 8000 | 6130 | > 8000 | > 8000 | > 8000 | > 8000 | 2340 | 1120 | > 8000 | > 8000 | > 8000 | –
